Laboratory results from PMC6211260 (Journal of Enzyme Inhibition and Medicinal Chemistry, 2018).

Tests used:
Assay type in all cases: cell-based
[1] = system: ovarian cancer cell lines; test: NCI five-dose testing, subpanel mean; settings: subpanel VI: ovarian cancer
Description: (§1) Screening against the cancer cell lines was carried out at the National Cancer Institute (NCI, Bethesda, Maryland, USA) applying the standard protocol of the NCI[22].

breast cancer cell lines = test: NCI five-dose testing, subpanel mean; settings: subpanel IX: breast cancer
Description: as §1

[2] = system: prostate cancer cell lines; test: NCI five-dose testing, subpanel mean; settings: subpanel VIII: prostate cancer
Description: as §1

renal cancer cell lines = test: NCI five-dose testing, subpanel mean; settings: subpanel VII: renal cancer
Description: as §1

melanoma cell lines = test: NCI five-dose testing, subpanel mean; settings: subpanel V: melanoma
Description: as §1

colon cancer cell lines = test: NCI five-dose testing, subpanel mean; settings: subpanel III: colon cancer
Description: as §1

[3] = system: non-small cell lung cancer cell lines; test: NCI five-dose testing, subpanel mean; settings: subpanel II: non-small cell lung cancer
Description: as §1

Leukaemia cell lines = test: NCI five-dose testing, subpanel mean; settings: subpanel I: Leukaemia
Description: as §1

CNS cancer cell lines = test: NCI five-dose testing, subpanel mean; settings: subpanel IV: CNS cancer
Description: as §1

[4] = system: K-562 leukaemia cell line; test: NCI five-dose testing; settings: K-562; for IC (TGI): read-out: TGI (total growth inhibition concentration)
Description: as §1

[5] = system: A498 renal cancer cell line; test: NCI five-dose testing; settings: A498; for IC (TGI): read-out: TGI (total growth inhibition concentration)
Description: as §1

[6] = system: HT-29 colon cancer cell line; test: NCI five-dose testing; settings: HT-29; for IC50: read-out: IC50; for IC (TGI): read-out: TGI (total growth inhibition concentration)
Description: as §1

[7] = system: MDA-MB-468 breast cancer cell line; test: NCI five-dose testing; settings: MDA-MB-468; for IC (TGI): read-out: TGI (total growth inhibition concentration)
Description: as §1

[8] = system: PC-3 prostate cancer cell line; test: NCI five-dose testing; settings: PC-3; for IC50: read-out: IC50; for IC (TGI): read-out: TGI (total growth inhibition concentration)
Description: as §1

[9] = system: U251 CNS cancer cell line; test: NCI five-dose testing; settings: U251; for IC50: read-out: IC50; for IC (TGI): read-out: TGI (total growth inhibition concentration)
Description: as §1

[10] = system: OVCAR-4 ovarian cancer cell line; test: NCI five-dose testing; settings: OVCAR-4; for IC (TGI): read-out: TGI (total growth inhibition concentration)
Description: as §1

[11] = system: HOP-92 non-small cell lung cancer cell line; test: NCI five-dose testing; settings: HOP-92; for IC (TGI): read-out: TGI (total growth inhibition concentration)
Description: as §1

[12] = system: SK-MEL-5 melanoma cell line; test: NCI five-dose testing; settings: SK-MEL-5; for IC (TGI): read-out: TGI (total growth inhibition concentration)
Description: as §1

Row | SMILES | IC50 [1] [µM] | IC50 (breast cancer cell lines) [µM] | IC50 [2] [µM] | IC50 (renal cancer cell lines) [µM] | IC50 (melanoma cell lines) [µM] | IC50 (colon cancer cell lines) [µM] | IC50 [3] [µM] | IC50 (Leukaemia cell lines) [µM] | IC50 (CNS cancer cell lines) [µM] | IC50 [4] [µM] | LD50 (lethal dose 50) [4] [µM] | IC (TGI) [4] [µM] | IC50 [5] [µM] | LD50 (lethal dose 50) [5] [µM] | IC (TGI) [5] [µM] | LD50 (lethal dose 50) [6] [µM] | IC50 [6] [µM] | IC (TGI) [6] [µM] | IC50 [7] [µM] | LD50 (lethal dose 50) [7] [µM] | further results
1 | COc1cccc(-c2nn(-c3ccccc3)cc2-c2ccnc(NCCNS(=O)(=O)c3ccc(Cl)cc3)c2)c1 [Compound 1c, 4-Chloro-N-(2-((4-(3-(3-methoxyphenyl)-1-phenyl-1H-pyrazol-4-yl)pyridin-2-yl)amino)ethyl) benzenesulfonamide] | 5.23 | 3.79 | 4.99 | 4.79 | 4.58 | 4.08 | 6.02 | 2.89 | 6.33 | 3.73 | >100 | >100 | 4.56 | >100 | >100 | >100 | 3.37 | 11.3 | 3.9 | >100 | IC (TGI) [7]: >100 µM; LD50 (lethal dose 50) [8]: >100 µM; IC50 [8]: 2.44 µM; IC (TGI) [8]: >100 µM; LD50 (lethal dose 50) [9]: >100 µM; IC50 [9]: 5.89 µM; IC (TGI) [9]: >100 µM; IC50 [10]: 4.15 µM; LD50 (lethal dose 50) [10]: >100 µM; IC (TGI) [10]: >100 µM; IC50 [11]: 2.46 µM; LD50 (lethal dose 50) [11]: >100 µM; IC (TGI) [11]: 9.4 µM; IC50 [12]: 1.95 µM; LD50 (lethal dose 50) [12]: 7.7 µM; IC (TGI) [12]: 3.8 µM
2 | O=S(=O)(NCCNc1cc(-c2cn(-c3ccccc3)nc2-c2cccc(O)c2)ccn1)c1ccc(Br)cc1 [Compound 1k, 4-Bromo-N-(2-((4-(3-(3-hydroxyphenyl)-1-phenyl-1H-pyrazol-4-yl)pyridin-2-yl)amino)ethyl) benzenesulfonamide] | 2.87 | 2.34 | 2.54 | 2.48 | 2.03 | 2.29 | 2.69 | 2.11 | 2.18 | 1.98 | >100 | 5.4 | 3.33 | 34.3 | 5.4 | 17.3 | 2.17 | 5.0 | 2.7 | >100 | IC (TGI) [7]: 7.7 µM; LD50 (lethal dose 50) [8]: >100 µM; IC50 [8]: 2.07 µM; IC (TGI) [8]: 6.4 µM; LD50 (lethal dose 50) [9]: 25.6 µM; IC50 [9]: 2.21 µM; IC (TGI) [9]: 5.6 µM; IC50 [10]: 2.32 µM; LD50 (lethal dose 50) [10]: >100 µM; IC (TGI) [10]: 13.7 µM; IC50 [11]: 2 µM; LD50 (lethal dose 50) [11]: 34.6 µM; IC (TGI) [11]: 5.0 µM; IC50 [12]: 1.64 µM; LD50 (lethal dose 50) [12]: 5.6 µM; IC (TGI) [12]: 3.0 µM
3 | O=S(=O)(NCCNc1cc(-c2cn(-c3ccccc3)nc2-c2cccc(O)c2)ccn1)c1ccc(F)cc1 [Compound 1m, 4-Fluoro-N-(2-((4-(3-(3-hydroxyphenyl)-1-phenyl-1H-pyrazol-4-yl)pyridin-2-yl)amino)ethyl) benzenesulfonamide] | 2.68 | 2.16 | 2.88 | 2.88 | 2.06 | 2.34 | 2.65 | 2.29 | 2.51 | 1.98 | >100 | >100 | 2.32 | 45.7 | 9.2 | 54.3 | 1.99 | 47.9 | 1.88 | >100 | IC (TGI) [7]: 5.3 µM; LD50 (lethal dose 50) [8]: >100 µM; IC50 [8]: 2.29 µM; IC (TGI) [8]: 10.2 µM; LD50 (lethal dose 50) [9]: 50.9 µM; IC50 [9]: 2.62 µM; IC (TGI) [9]: 6.8 µM; IC50 [10]: 3.05 µM; LD50 (lethal dose 50) [10]: >100 µM; IC (TGI) [10]: >100 µM; IC50 [11]: 2.03 µM; LD50 (lethal dose 50) [11]: 68.8 µM; IC (TGI) [11]: 8.4 µM; IC50 [12]: 1.73 µM; LD50 (lethal dose 50) [12]: 6.0 µM; IC (TGI) [12]: 3.2 µM
